Columns and labels:
ROS level in DRG neurons = ROS level in DRG neurons by DCFH-DA flow cytometry; type: in vivo, rat; settings: SNI rats, 50 μg/kg i.th, 3 h after administration, versus vehicle
Excerpt: (§1) The SNI surgery was constructed as previously described^16, 17. In brief, after animals were anesthetized by isoflurane (1.5-2.5%), a half centimeter incision was made in the middle of the outer. Muscles from the upper layer were bluntly dissected to expose the sciatic nerve and its branches to the left hind leg's common peroneal, tibial, and peroneal nerves. Then, the front two nerves were clipped, and the […]. In the sham-operated group, the sciatic nerve was only exposed, and no clipping or injury was done. After suturing the skin, animals were transferred to an observation box for recovery.
Intrathecal administration of vehicle or drugs was conducted by direct lumbar puncture in the L5-L6 intervertebral space with a 30-gauge needle following the method of Mestre^18. […]
ROS level of DRG neurons were labeled by ROS Assay Kit (Beyotime Co., Ltd., China) and detected by flow cytometry according to the manufacturer's instructions. […] However, after entering the cell, DCFH-DA is hydrolyzed by cellular esterase to generate DCFH (2′,7′-dichlorodihydrofluorescein), which is non-permeable to the cell membrane, and can be oxidized by ROS into fluorescent DCF (2′,7′-dichlorofluorescein) that can be detected by flow cytometry. The fluorescence intensity represents the intracellular ROS levels.

[1] = system: voltage-gated sodium (NaV) channels; experiment: Whole-cell voltage clamp of NaV currents in small diameter DRG neurons; type: cell-based, rat; settings: primary cultured small diameter (<30 μm) DRG neurons, 20 μM overnight
Method: DRG neurons were obtained from rodents by acute isolation as previously described^21, 22. After animals were euthanized, the dorsal skin was removed to perform laminectomy to expose DRG, L4-L6 DRGs were rapidly collected from the intervertebral foramen. The collected DRGs were digested in 3 mL bicarbonate-free, serum-free, sterile DMEM (cat. no. 11965; Thermo Fisher Scientific) containing a mixture of enzymes (neutral protease, 3.125 mg/mL (cat. no. LS02104; Worthington) and collagenase Type I 5 mg/mL (cat. no. LS004194; Worthington)), incubated in a shaker at 37° C. […]
(§2) Whole-cell voltage clamp recording was performed as previously described. […] Data were obtained by Patchmaster (HEKA) and analyzed with Fitmaster (HEKA). […]
(§3) NaV currents were measured from rodent DRG small diameter (<30 μm) neurons. […] This process occurs between 0 and 10 mV and can be analyzed as a function of voltage, as inferred from the peak current density (normalized to the cell capacitance (picofarad, pF)); (ii) Inactivation protocol: starting from a clamp potential of −60 mV, a hyperpolarization/depolarization pulse of 1 second in the range of −120 to 20 mV, in steps of +10 mV for 1 second. […] The Boltzmann relevant factors, similar to half-maximal activation (V50) and slope, for the single fits to the data, are calculated, summarized, and compared among groups. […]

NaV1.7 = target: T1, NaV1.7 (Homo sapiens, UniProt Q15858); experiment: Whole-cell voltage clamp of NaV1.7 currents in transfected HEK293 cells; type: cell-based
T1 construct: conflicts with the methods; host or cells: HEK293
T1 sequence (Q15858 whole entry): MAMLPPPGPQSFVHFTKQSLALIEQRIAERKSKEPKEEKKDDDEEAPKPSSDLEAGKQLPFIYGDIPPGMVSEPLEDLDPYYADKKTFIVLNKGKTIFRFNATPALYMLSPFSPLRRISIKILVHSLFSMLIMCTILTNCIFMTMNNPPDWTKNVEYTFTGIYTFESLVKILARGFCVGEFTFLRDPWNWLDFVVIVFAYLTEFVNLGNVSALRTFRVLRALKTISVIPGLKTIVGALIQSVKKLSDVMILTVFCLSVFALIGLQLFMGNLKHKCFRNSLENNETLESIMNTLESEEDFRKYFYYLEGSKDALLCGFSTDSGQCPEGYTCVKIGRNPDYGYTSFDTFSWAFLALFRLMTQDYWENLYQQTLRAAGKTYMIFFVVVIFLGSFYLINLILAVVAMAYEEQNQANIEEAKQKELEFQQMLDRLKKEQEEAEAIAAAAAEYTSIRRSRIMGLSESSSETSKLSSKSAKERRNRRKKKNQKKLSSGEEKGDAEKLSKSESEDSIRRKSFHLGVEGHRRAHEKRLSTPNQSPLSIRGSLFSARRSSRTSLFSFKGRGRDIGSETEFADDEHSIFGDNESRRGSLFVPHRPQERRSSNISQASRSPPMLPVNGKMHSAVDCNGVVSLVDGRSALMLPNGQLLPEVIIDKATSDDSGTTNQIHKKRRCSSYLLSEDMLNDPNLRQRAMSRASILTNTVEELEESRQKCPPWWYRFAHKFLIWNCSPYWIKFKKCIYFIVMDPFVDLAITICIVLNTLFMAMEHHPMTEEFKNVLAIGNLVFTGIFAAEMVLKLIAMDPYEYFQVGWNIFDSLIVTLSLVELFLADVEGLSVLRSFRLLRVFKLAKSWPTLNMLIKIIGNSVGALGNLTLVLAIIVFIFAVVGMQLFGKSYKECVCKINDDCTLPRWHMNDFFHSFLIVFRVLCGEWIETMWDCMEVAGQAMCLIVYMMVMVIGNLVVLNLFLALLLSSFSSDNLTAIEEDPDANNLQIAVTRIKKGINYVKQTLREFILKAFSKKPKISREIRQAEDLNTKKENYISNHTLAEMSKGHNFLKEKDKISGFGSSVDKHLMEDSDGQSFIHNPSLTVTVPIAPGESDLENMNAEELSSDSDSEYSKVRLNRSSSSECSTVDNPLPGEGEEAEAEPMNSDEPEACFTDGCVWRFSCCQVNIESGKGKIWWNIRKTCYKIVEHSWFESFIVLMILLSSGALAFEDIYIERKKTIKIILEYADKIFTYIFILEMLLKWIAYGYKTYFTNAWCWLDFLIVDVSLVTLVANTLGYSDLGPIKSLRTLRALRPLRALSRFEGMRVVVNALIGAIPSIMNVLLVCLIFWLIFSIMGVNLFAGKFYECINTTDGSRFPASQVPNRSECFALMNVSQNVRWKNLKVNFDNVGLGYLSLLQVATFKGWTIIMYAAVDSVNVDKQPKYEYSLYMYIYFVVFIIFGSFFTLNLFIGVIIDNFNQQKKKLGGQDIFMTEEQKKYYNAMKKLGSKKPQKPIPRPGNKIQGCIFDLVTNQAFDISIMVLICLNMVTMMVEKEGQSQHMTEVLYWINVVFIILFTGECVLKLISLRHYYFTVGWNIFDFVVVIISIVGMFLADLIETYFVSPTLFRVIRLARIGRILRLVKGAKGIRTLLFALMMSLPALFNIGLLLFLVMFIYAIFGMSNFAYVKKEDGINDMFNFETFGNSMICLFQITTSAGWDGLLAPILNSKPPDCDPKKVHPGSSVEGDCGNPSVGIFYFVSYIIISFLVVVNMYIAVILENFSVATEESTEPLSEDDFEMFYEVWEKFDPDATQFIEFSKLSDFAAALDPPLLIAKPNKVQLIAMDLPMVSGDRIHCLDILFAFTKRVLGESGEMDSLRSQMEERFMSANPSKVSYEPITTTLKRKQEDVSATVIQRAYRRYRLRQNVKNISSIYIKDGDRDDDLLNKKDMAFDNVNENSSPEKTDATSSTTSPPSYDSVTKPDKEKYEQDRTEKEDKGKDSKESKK
Method: HEK293 cells were purchased from Shanghai Institute of Biological Sciences, Chinese Academy of Sciences. HEK293 cells were cultured in medium (DMEM containing 10% fetal bovine serum and 1% penicillin/streptomycin) in an atmosphere of 5% CO2 at 37° C.
The NaV1.7 sequence was synthesized by GenScript (Nanjing, Jiangsu Province, China) and inserted into the pcDNA3.1 (+)-C-DYK plasmid between the BamH1 and EcoRI restriction sites. The empty plasmid of pcDNA3.1 purchased from Shenzhen Yanming Biotechnology Company was used as a mock transfection control. […]
as §2, §3

[2] = system: spared nerve injury (SNI) rat model; experiment: Pin test, hyperalgesia in SNI rats; type: in vivo; settings: 50 μg/kg/day intrathecally, from 14 days post injury
Excerpt: as §1
(§4) Intrathecal administration of vehicle or drugs was conducted by direct lumbar puncture in the L5-L6 intervertebral space with a 30-gauge needle following the method of Mestre^18. This procedure was performed under isoflurane anesthesia to permit rapid recovery of the animals. The quality of each injection was ensured by the observation of an injection-induced tail-flick.
Hyperalgesia was evaluated by pin test described previously^20. […] Normal response (brief flinch) or noxious-like response (sustained elevation of the paw with licking, shaking, or grooming) was recorded in 10 repeated trials with a minimum of 10 seconds' gap. Data was expressed as percentage of noxious-like response out of 10 trials.

NRF2 = experiment: Immunoblot of NRF2 expression in L4-L6 DRG of SNI rats; type: in vivo, rat; settings: 50 μg/kg, DRG collected 3 h after administration, versus vehicle
Excerpt: as §1, §4
For western blotting, L4-6 DRGs were extracted from the ipsilateral surgery of SNI rats and stored in liquid nitrogen to be set aside. DRGs were then sheared in pre-cooled potent RIPA lysate (containing protease and phosphatase inhibitors) and their whole cell lysates were obtained by ultrasonic crushing on ice. […] Immunoreactive bands were detected by chemiluminescence.

[3] = system: spared nerve injury (SNI) rat model; experiment: Acetone test, cold allodynia in SNI rats; type: in vivo; settings: 50 μg/kg/day intrathecally, from 14 days post injury
Excerpt: as §1, §4
Assessment of cold allodynia was using acetone test^20. Animals were placed in the assessment cage described above for habituation. Acetone was collected by pipette for each trial. […] As the acetone fast spread across the plantar skin and evaporated, noxious withdrawal responses of the hind paw (fluttering, licking, or hanging) against the cold stimuli was recorded. […]

[4] = system: spared nerve injury (SNI) rat model; experiment: Von Frey test, mechanical allodynia in spared nerve injury (SNI) rats; type: in vivo; settings: 50 μg/kg/day intrathecally, from 14 days post injury
Excerpt: as §1, §4
Assessment of mechanical allodynia was using the Von Frey test as previously described^17. The animals were placed in plastic cages with metal mesh on the bottom and allowed to acclimatize for at least half an hour before each test. Each Von Frey wire was held perpendicular to the contact surface of the paw until it bent. […]

Cc1ccc(-c2noc(-c3ccc(F)c(F)c3)n2)cn1 [Compound 1, 5-(3,4-difluorophenyl)-3-(6-methylpyridin-3-yl)-1,2,4-oxadiazole]
ROS level in DRG neurons (DCF staining) (ROS level in DRG neurons): decreased
inhibition of NaV currents [1]: significant inhibition of NaV currents
inhibition of NaV1.7 current density under excessive oxidative stress (NaV1.7; HEK293 cells transfected with NaV1.7, pre-treated with H2O2 (500 μM, 20 min), then 20 μM overnight): Same inhibiting properties
inhibition of NaV1.7 current density (NaV1.7; HEK293 cells transfected with NaV1.7 plasmid, 20 μM overnight): significantly inhibited NaV1.7 current density
max inhibiting rate in hyperalgesia [2]: ~37.5%
expression level of NRF2 in L4-L6 DRG (NRF2): increased the expression level of NRF2
max inhibiting rate in cold allodynia [3]: ~35.0%
max inhibiting rate in mechanical allodynia [4]: about 70.0%
